Results on one molecule are retold here after patent publication US12522623B2, “Small molecule STAT protein degraders” (THE REGENTS OF THE UNIVERSITY OF MICHIGAN, priority 2020, dated 2026).

Type in all cases: cell-based
The subject of assay [1] is MOLM-16 cells. Briefly: Cell growth inhibition, 4-day proliferation assay (CellTiter-Glo). The conditions noted are these: MOLM16, 96 h; MOLM-16, 4 days. As for the experimental part:
The effect of representative Compounds of the Disclosure on cell viability was determined in a 4-day proliferation assay. Cells were maintained in the appropriate culture medium at 37° C. and an atmosphere of 5% CO2. All the cell lines were used within three months of thawing fresh vials. Cells were seeded in 384-well white plates (Corning Costar) at a density of 2,000 cells/well in 25 μl of culture medium. Compounds were serially diluted in the appropriate medium, and 25 μl of the diluted compounds were added to the cells. After the addition of compounds, the cells were incubated at 37° C. in an atmosphere of 5% CO2 for 4 days. Cell viability was determined using the CellTiter-Glo® Luminescent Cell Viability Assay Kit (Promega, Madison, WI) according to the manufacturers' instructions. Essentially, 50 μl of CellTiter-Glo® Reagent was added to each well, and then the plates were incubated at room temperature for 20 minutes. The luminescent signal was measured using a Tecan multimode microplate reader (Tecan, Morrisville, NC). The readings were normalized to the DMSO-treated cells and the IC50 was calculated by nonlinear regression (four parameters sigmoid fitted with variable slope, least squares fit, and no constraint) analysis using the GraphPad Prism software.
A general note: ATP-based viability assays read luminescence as a measure of living cells.

For assay [2], the target named is T1, STAT1 (Homo sapiens, UniProt P42224).
T1 construct: endogenous in cells; host or cells: MOLM-16 (acute leukemia cells)
T1 sequence (P42224 1-750): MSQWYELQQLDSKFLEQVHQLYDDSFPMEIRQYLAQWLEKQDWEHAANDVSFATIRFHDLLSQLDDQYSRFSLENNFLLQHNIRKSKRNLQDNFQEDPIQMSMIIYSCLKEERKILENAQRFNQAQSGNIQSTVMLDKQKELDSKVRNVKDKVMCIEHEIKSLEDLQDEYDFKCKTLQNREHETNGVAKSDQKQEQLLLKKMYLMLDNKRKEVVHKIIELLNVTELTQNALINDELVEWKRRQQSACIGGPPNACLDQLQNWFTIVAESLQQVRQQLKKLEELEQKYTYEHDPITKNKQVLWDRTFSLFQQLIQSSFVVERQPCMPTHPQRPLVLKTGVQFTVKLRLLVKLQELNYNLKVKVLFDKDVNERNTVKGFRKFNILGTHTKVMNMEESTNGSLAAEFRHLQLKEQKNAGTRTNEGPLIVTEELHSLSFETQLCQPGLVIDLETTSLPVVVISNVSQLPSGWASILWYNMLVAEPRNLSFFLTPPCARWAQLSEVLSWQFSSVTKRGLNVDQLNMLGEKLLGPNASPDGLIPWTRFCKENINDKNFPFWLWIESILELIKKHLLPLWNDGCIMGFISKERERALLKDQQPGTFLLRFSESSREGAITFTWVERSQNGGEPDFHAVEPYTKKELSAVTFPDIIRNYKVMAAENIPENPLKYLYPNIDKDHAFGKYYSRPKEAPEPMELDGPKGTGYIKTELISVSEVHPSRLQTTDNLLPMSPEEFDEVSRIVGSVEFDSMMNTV
Briefly: Fluorescent immunoblotting of STAT1 protein in MOLM-16 cells (estimated DC50). The note with it: MOLM-16, 4 h. As for the experimental part:
(§1) In vitro cultured cells or xenograft tumors were lysed 1×Cell Lysis Buffer (Cell Signaling Technology, #9803), resolved by SDS-PAGE NuPAGE gel (Thermo Fisher Scientific), and transferred to a PVDF membrane (Bio Rad). For chemiluminescence immunoblotting, membranes were blocked for 1 h using 5% Blotting-Grade Blocker (#1706404, Bio Rad) in 1×Tris-buffered saline with Tween 20 (TBST, Pierce). Antibodies used were: rabbit mAbs for STAT3 (Cell Signaling Technology, #4368, #12640) and p-STAT3 (Y705) (Cell Signaling Technology, #9245, #52075). HRP conjugated goat anti-rabbit IgG (H+L) (#A27036) secondary antibodies was from Thermo Fisher Scientific. GAPDH (Santa Cruz Technology, sc-47724HRP) and actin (Santa Cruz Technology, sc-8432HRP, sc-47778HRP) were loading controls. For fluorescent immunoblotting, membranes were blocked using Odyssey TBS Blocker Buffer (LI-COR). IRDye 680RD and 800CW Dye-labeled secondary antibodies (LI-COR) were used. The washed membranes were scanned using Odyssey CLx imager (LI-COR). The intensity of Western blot signaling was quantitated using the Odyssey software or Image Studio V5.2 (LI-COR).

Assay [3] concerns the target T2, STAT3 (Homo sapiens, UniProt P40763).
T2 construct: endogenous in cells; host or cells: MOLM-16 (acute leukemia cells)
Briefly: Fluorescent immunoblotting of STAT3 protein in MOLM-16 cells (estimated DC50). The conditions noted are these: MOLM-16, 4 h. As for the experimental part: as §1

T2 sequence (P40763 whole entry): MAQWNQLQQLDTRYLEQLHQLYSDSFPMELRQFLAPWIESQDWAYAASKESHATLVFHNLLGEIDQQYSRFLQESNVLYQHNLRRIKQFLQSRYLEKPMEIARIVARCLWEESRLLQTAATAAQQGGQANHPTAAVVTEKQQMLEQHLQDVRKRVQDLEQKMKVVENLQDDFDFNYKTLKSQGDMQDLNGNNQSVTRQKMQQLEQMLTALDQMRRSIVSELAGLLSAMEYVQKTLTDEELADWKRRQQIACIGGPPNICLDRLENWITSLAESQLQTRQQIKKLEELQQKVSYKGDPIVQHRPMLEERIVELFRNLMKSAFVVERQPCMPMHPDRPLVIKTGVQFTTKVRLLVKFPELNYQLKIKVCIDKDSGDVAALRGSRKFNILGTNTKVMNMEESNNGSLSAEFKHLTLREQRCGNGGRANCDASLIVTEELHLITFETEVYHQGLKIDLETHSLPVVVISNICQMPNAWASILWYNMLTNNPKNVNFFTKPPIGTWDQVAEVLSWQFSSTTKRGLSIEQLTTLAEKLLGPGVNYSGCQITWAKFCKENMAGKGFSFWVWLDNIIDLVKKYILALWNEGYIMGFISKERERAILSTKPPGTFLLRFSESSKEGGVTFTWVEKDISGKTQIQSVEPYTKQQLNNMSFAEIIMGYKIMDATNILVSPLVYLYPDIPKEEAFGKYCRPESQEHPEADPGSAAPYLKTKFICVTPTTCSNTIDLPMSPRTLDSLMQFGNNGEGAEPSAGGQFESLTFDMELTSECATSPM

The IC50 is the point on the concentration scale where inhibition reaches its midpoint. `NC(=O)CC[C@H](NC(=O)[C@@H]1CC[C@@H]2CCN(C(=O)CCCCCC#Cc3cccc4c3CN(C3CCC(=O)NC3=O)C4=O)C[C@H](NC(=O)c3cc4cc(C(F)(F)P(=O)(O)O)ccc4s3)C(=O)N21)c1ncc(-c2ccccc2)s1` (stereo partly drawn) [Cpd. No. 2, ((2-(((5S,8S,10aR)-8-(((S)-4-amino-4-oxo-1-(5-phenylthiazol-2-yl)butyl)carbamoyl)-3-(8-(2-(2,6-dioxopiperidin-3-yl)-1-oxoisoindolin-4-yl)oct-7-ynoyl)-6-oxodecahydropyrrolo[1,2-a][1,5]diazocin-5-yl)carbamoyl)benzo[b]thiophen-5-yl)difluoromethyl)phosphonic acid] registered an IC50 in assay [1] of 49 nM. Further, the figures for the DC50 in assay [2] and in assay [3] were > 1000 nM and 100 nM, respectively.
